Measurements as given in patent publication US20250237650A1 (priority 2021, published 2025).

Key:
[1] = target: Env (monomeric gp140; Clade CRF07_BC); experiment: BLI of HS/HEP to monomeric Env; parameters: species or system HIV-1; conditions: steady-state analysis of BLI data; read-out: Estimated binding affinity (KD)
[2] = target: trimeric Env (Group M; Clade C); experiment: BLI of HS to trimeric Env; parameters: species or system HIV-1; conditions: read-out: estimated binding affinity
[3] = test system: variants of Env (trimeric gp140; Clade C, B, A); experiment: BLI of HS to variants of trimeric Env; type: binding, HIV-1
[4] = test system: SARS-CoV-2 spike; type: binding; conditions: for Kd: pH 7.4
[5] = test system: SARS-CoV-2 spike

Substance	Kd [1]	LFSA signal intensity of capture probes [5]	Kd [4]	other results
heparan sulfate [HS]	142 nM			Kd [2]: 28 nM; Binding affinity of HS to all the subtypes [3]: in the nanomolar range
heparin [reference compound]	209 nM			HEP binding affinity to spike as ionic strength increased [4]: dramatically decreased
heparan sulfate [HS15]		highest signal intensity		
chondroitin sulfate [CS25]			17.9 nM	
heparin [HEP27, reference compound]		lower signal intensity		
heparin [HEP15, reference compound]			215 nM	
